Measurements: patent US20230372498A1, “PLK1 SELECTIVE DEGRADATION INDUCING COMPOUND” (UPPTHERA, priority 2020, published 2023)

Target: T1, PLK1 (Homo sapiens, UniProt P53350)
T1 construct: endogenous in cells; host or cells: HeLa
Test: PLK1 protein degradation in HeLa cells, Western blotting (PLK1/GAPDH ratio)
Assay type: cell-based
Conditions: 6 hours compound incubation; for DC50: measured only if the grade of Dmax is A or B; for Dmax: thymidine block and release, 10 points three-fold from 3 μM, PLK1 to GAPDH ratio, read-out: Dmax
Outline: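 Thymidine-synchronised HeLa cells (2 mM, 24 h) released 4 h into complete medium, then treated 6 h with compound in 10-point 3-fold dilutions from 3 μM. RIPA lysates (15 μg protein) run on SDS-PAGE; PLK1 Western blot normalised to GAPDH.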

T1 sequence (P53350 whole entry): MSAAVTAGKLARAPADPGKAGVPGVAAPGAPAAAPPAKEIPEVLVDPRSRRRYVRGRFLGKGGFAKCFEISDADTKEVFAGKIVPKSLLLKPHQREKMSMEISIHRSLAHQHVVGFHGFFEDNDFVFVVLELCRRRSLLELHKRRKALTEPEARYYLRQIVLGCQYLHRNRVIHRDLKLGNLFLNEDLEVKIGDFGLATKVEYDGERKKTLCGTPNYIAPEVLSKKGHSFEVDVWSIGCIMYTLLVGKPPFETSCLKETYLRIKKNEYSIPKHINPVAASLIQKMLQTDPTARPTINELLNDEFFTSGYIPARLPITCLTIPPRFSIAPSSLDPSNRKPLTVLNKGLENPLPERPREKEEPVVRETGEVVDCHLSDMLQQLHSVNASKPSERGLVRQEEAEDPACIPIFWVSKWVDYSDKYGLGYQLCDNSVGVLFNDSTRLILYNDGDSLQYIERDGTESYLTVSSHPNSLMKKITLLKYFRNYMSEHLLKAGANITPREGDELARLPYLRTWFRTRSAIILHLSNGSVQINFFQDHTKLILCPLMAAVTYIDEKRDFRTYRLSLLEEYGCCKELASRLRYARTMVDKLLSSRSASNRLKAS

Row | Compound | DC50 | Dmax
1 | COc1cc(C(=O)NCC2CCCN(CCOCCNc3cccc4c3C(=O)N(C3CCC(=O)NC3=O)C4=O)C2)c(F)cc1Nc1ncc2c(n1)N(C1CCCC1)CC(F)(F)C(=O)N2C (centres unmarked) [Compound 125, 4-((9-cyclopentyl-7,7-difluoro-5-methyl-6-oxo-6,7,8,9-tetrahydro-5H-pyrimido[4,5-b][1,4]diazepin-2-yl)amino)-N-((1-(2-(2-((2-(2,6-dioxopiperidin-3-yl)-1,3-dioxoisoindolin-4-yl)amino)ethoxy)ethyl)piperidin-3-yl)methyl)-2-fluoro-5-methoxybenzamide] | ≤ 50 nM | ≥ 80%
2 | COc1cc(C(=O)NCC2CCCCN2CCOCCNc2cccc3c2C(=O)N(C2CCC(=O)NC2=O)C3=O)c(F)cc1Nc1ncc2c(n1)N(C1CCCC1)CC(F)(F)C(=O)N2C (centres unmarked) [Compound 126, 4-((9-cyclopentyl-7,7-difluoro-5-methyl-6-oxo-6,7,8,9-tetrahydro-5H-pyrimido[4,5-b][1,4]diazepin-2-yl)amino)-N-((1-(2-(2-((2-(2,6-dioxopiperidin-3-yl)-1,3-dioxoisoindolin-4-yl)amino)ethoxy)ethyl)piperidin-2-yl)methyl)-2-fluoro-5-methoxybenzamide] | ≤ 500 nM | 60 to 80%
3 | COc1cc(C(=O)NC2CCN(CCOCCNC(=O)COc3cccc4c3C(=O)N(C3CCC(=O)NC3=O)C4=O)C2)c(F)cc1Nc1ncc2c(n1)N(C1CCCC1)CC(F)(F)C(=O)N2C (centres unmarked) [Compound 127, 4-((9-cyclopentyl-7,7-difluoro-5-methyl-6-oxo-6,7,8,9-tetrahydro-5H-pyrimido[4,5-b][1,4]diazepin-2-yl)amino)-N-(1-(2-(2-(2-((2-(2,6-dioxopiperidin-3-yl)-1,3-dioxoisoindolin-4-yl)oxy)acetamido)ethoxy)ethyl)pyrrolidin-3-yl)-2-fluoro-5-methoxybenzamide] | ≤ 500 nM | 60 to 80%
4 | COc1cc(C(=O)NC2CCN(C(=O)CCN3CCN(c4cccc5c4C(=O)N(C4CCC(=O)NC4=O)C5=O)CC3)CC2)ccc1Nc1ncc2c(n1)N(C1CCCC1)CC(F)(F)C(=O)N2C (centres unmarked) [Compound 128, 4-((9-cyclopentyl-7,7-difluoro-5-methyl-6-oxo-6,7,8,9-tetrahydro-5H-pyrimido[4,5-b][1,4]diazepin-2-yl)amino)-N-(1-(3-(4-(2-(2,6-dioxopiperidin-3-yl)-1,3-dioxoisoindolin-4-yl)piperazin-1-yl)propanoyl)piperidin-4-yl)-3-methoxybenzamide] | ≤ 50 nM | ≥ 80%
5 | CN1C(=O)C(F)(F)CN(C2CCCC2)c2nc(Nc3ccc(C(=O)NC4CCN(C(=O)CCN5CCN(c6cccc7c6C(=O)N(C6CCC(=O)NC6=O)C7=O)CC5)CC4)cc3)ncc21 (centres unmarked) [Compound 129, 4-((9-cyclopentyl-7,7-difluoro-5-methyl-6-oxo-6,7,8,9-tetrahydro-5H-pyrimido[4,5-b][1,4]diazepin-2-yl)amino)-N-(1-(3-(4-(2-(2,6-dioxopiperidin-3-yl)-1,3-dioxoisoindolin-4-yl)piperazin-1-yl)propanoyl)piperidin-4-yl)benzamide] | ≤ 50 nM | ≥ 80%
6 | COc1cc(C(=O)N[C@H]2CCN(C(=O)CN3CCN(c4cccc5c4C(=O)N(C4CCC(=O)NC4=O)C5=O)CC3)C2)c(F)cc1Nc1ncc2c(n1)N(C1CCCC1)CC(F)(F)C(=O)N2C (some centres unmarked) [Compound 130] | ≤ 50 nM | ≥ 80%
7 | COc1cc(C(=O)N[C@H]2CCN(C(=O)CCN3CCN(c4cccc5c4C(=O)N(C4CCC(=O)NC4=O)C5=O)CC3)C2)c(F)cc1Nc1ncc2c(n1)N(C1CCCC1)CC(F)(F)C(=O)N2C (stereo partly drawn) [Compound 131, 4-((9-cyclopentyl-7,7-difluoro-5-methyl-6-oxo-6,7,8,9-tetrahydro-5H-pyrimido[4,5-b][1,4]diazepin-2-yl)amino)-N-((3S)-1-(3-(4-(2-(2,6-dioxopiperidin-3-yl)-1,3-dioxoisoindolin-4-yl)piperazin-1-yl)propanoyl)pyrrolidin-3-yl)-2-fluoro-5-methoxybenzamide] | ≤ 50 nM | ≥ 80%
8 | COc1cc(C(=O)N[C@@H]2CCN(C(=O)CCN3CCN(c4cccc5c4C(=O)N(C4CCC(=O)NC4=O)C5=O)CC3)C2)c(F)cc1Nc1ncc2c(n1)N(C1CCCC1)CC(F)(F)C(=O)N2C (stereo partly drawn) [Compound 132, 4-((9-cyclopentyl-7,7-difluoro-5-methyl-6-oxo-6,7,8,9-tetrahydro-5H-pyrimido[4,5-b][1,4]diazepin-2-yl)amino)-N-((3R)-1-(3-(4-(2-(2,6-dioxopiperidin-3-yl)-1,3-dioxoisoindolin-4-yl)piperazin-1-yl)propanoyl)pyrrolidin-3-yl)-2-fluoro-5-methoxybenzamide] | ≤ 50 nM | ≥ 80%
9 | COc1cc(C(=O)N[C@@H]2CCN(C(=O)CCCN3CCN(c4cccc5c4C(=O)N(C4CCC(=O)NC4=O)C5=O)CC3)C2)c(F)cc1Nc1ncc2c(n1)N(C1CCCC1)CC(F)(F)C(=O)N2C (stereo partly drawn) [Compound 133, 4-((9-cyclopentyl-7,7-difluoro-5-methyl-6-oxo-6,7,8,9-tetrahydro-5H-pyrimido[4,5-b][1,4]diazepin-2-yl)amino)-N-((3R)-1-(4-(4-(2-(2,6-dioxopiperidin-3-yl)-1,3-dioxoisoindolin-4-yl)piperazin-1-yl)butanoyl)pyrrolidin-3-yl)-2-fluoro-5-methoxybenzamide] | ≤ 50 nM | ≥ 80%
10 | COc1cc(C(=O)N[C@@H]2CCN(C(=O)CCCCN3CCN(c4cccc5c4C(=O)N(C4CCC(=O)NC4=O)C5=O)CC3)C2)c(F)cc1Nc1ncc2c(n1)N(C1CCCC1)CC(F)(F)C(=O)N2C (stereo partly drawn) [Compound 134, 4-((9-cyclopentyl-7,7-difluoro-5-methyl-6-oxo-6,7,8,9-tetrahydro-5H-pyrimido[4,5-b][1,4]diazepin-2-yl)amino)-N-((3R)-1-(5-(4-(2-(2,6-dioxopiperidin-3-yl)-1,3-dioxoisoindolin-4-yl)piperazin-1-yl)pentanoyl)pyrrolidin-3-yl)-2-fluoro-5-methoxybenzamide] | ≤ 50 nM | ≥ 80%

More lines, now with the values ahead:

Row | DC50 | Dmax | Compound
11 | ≤ 50 nM | ≥ 80% | COc1cc(C(=O)N[C@H]2CCN(C(=O)CN3CCN(c4ccc5c(c4)C(=O)N(C4CCC(=O)NC4=O)C5=O)CC3)C2)c(F)cc1Nc1ncc2c(n1)N(C1CCCC1)CC(F)(F)C(=O)N2C (stereo partly drawn) [Compound 135, 4-((9-cyclopentyl-7,7-difluoro-5-methyl-6-oxo-6,7,8,9-tetrahydro-5H-pyrimido[4,5-b][1,4]diazepin-2-yl)amino)-N-((3S)-1-(2-(4-(2-(2,6-dioxopiperidin-3-yl)-1,3-dioxoisoindolin-5-yl)piperazin-1-yl)acetyl)pyrrolidin-3-yl)-2-fluoro-5-methoxybenzamide]
12 | ≤ 50 nM | ≥ 80% | COc1cc(C(=O)N[C@H]2CCN(C(=O)CCN3CCN(c4ccc5c(c4)C(=O)N(C4CCC(=O)NC4=O)C5=O)CC3)C2)c(F)cc1Nc1ncc2c(n1)N(C1CCCC1)CC(F)(F)C(=O)N2C (stereo partly drawn) [Compound 136, 4-((9-cyclopentyl-7,7-difluoro-5-methyl-6-oxo-6,7,8,9-tetrahydro-5H-pyrimido[4,5-b][1,4]diazepin-2-yl)amino)-N-((3S)-1-(3-(4-(2-(2,6-dioxopiperidin-3-yl)-1,3-dioxoisoindolin-5-yl)piperazin-1-yl)propanoyl)pyrrolidin-3-yl)-2-fluoro-5-methoxybenzamide]
13 | ≤ 50 nM | ≥ 80% | COc1cc(C(=O)N[C@@H]2CCN(C(=O)CCN3CCN(c4ccc5c(c4)C(=O)N(C4CCC(=O)NC4=O)C5=O)CC3)C2)c(F)cc1Nc1ncc2c(n1)N(C1CCCC1)CC(F)(F)C(=O)N2C (stereo partly drawn) [Compound 137, 4-((9-cyclopentyl-7,7-difluoro-5-methyl-6-oxo-6,7,8,9-tetrahydro-5H-pyrimido[4,5-b][1,4]diazepin-2-yl)amino)-N-((3R)-1-(3-(4-(2-(2,6-dioxopiperidin-3-yl)-1,3-dioxoisoindolin-5-yl)piperazin-1-yl)propanoyl)pyrrolidin-3-yl)-2-fluoro-5-methoxybenzamide]
14 | ≤ 50 nM | ≥ 80% | COc1cc(C(=O)N[C@@H]2CCN(C(=O)CCCN3CCN(c4ccc5c(c4)C(=O)N(C4CCC(=O)NC4=O)C5=O)CC3)C2)c(F)cc1Nc1ncc2c(n1)N(C1CCCC1)CC(F)(F)C(=O)N2C (stereo partly drawn) [Compound 138, 4-((9-cyclopentyl-7,7-difluoro-5-methyl-6-oxo-6,7,8,9-tetrahydro-5H-pyrimido[4,5-b][1,4]diazepin-2-yl)amino)-N-((3R)-1-(4-(4-(2-(2,6-dioxopiperidin-3-yl)-1,3-dioxoisoindolin-5-yl)piperazin-1-yl)butanoyl)pyrrolidin-3-yl)-2-fluoro-5-methoxybenzamide]
15 | ≤ 50 nM | ≥ 80% | COc1cc(C(=O)N[C@@H]2CCN(C(=O)CCCCN3CCN(c4ccc5c(c4)C(=O)N(C4CCC(=O)NC4=O)C5=O)CC3)C2)c(F)cc1Nc1ncc2c(n1)N(C1CCCC1)CC(F)(F)C(=O)N2C (stereo partly drawn) [Compound 139, 4-((9-cyclopentyl-7,7-difluoro-5-methyl-6-oxo-6,7,8,9-tetrahydro-5H-pyrimido[4,5-b][1,4]diazepin-2-yl)amino)-N-((3R)-1-(5-(4-(2-(2,6-dioxopiperidin-3-yl)-1,3-dioxoisoindolin-5-yl)piperazin-1-yl)pentanoyl)pyrrolidin-3-yl)-2-fluoro-5-methoxybenzamide]
16 | ≤ 50 nM | ≥ 80% | COc1cc(C(=O)N[C@H]2CCN(C(=O)CCC(=O)N3CCN(c4cccc5c4C(=O)N(C4CCC(=O)NC4=O)C5=O)CC3)C2)c(F)cc1Nc1ncc2c(n1)N(C1CCCC1)CC(F)(F)C(=O)N2C (stereo partly drawn) [Compound 140, 4-((9-cyclopentyl-7,7-difluoro-5-methyl-6-oxo-6,7,8,9-tetrahydro-5H-pyrimido[4,5-b][1,4]diazepin-2-yl)amino)-N-((3S)-1-(4-(4-(2-(2,6-dioxopiperidin-3-yl)-1,3-dioxoisoindolin-4-yl)piperazin-1-yl)-4-oxobutanoyl)pyrrolidin-3-yl)-2-fluoro-5-methoxybenzamide]
